One assay has as its target human NOP receptor (Homo sapiens, UniProt P41146). The experiment in a line: Radioligand competition binding, [3H]N/OFQ, membranes of transfected CHO cells. To be noted: [3H]N/OFQ displacement; Cheng-Prusoff; mean ± SEM, at least three experiments in triplicate; read-out: Receptor Binding, Ki NOP.
A further assay has as its target human MOP receptor (Homo sapiens, UniProt P35372). The experiment in a line: Radioligand competition binding, [3H]DAMGO, membranes of transfected CHO cells. To be noted: for Ki: read-out: Receptor Binding, Ki MOP.
The target of a further assay is human DOP receptor (Homo sapiens, UniProt P41143). The experiment in a line: Radioligand competition binding, [3H]DPDPE, membranes of transfected CHO cells. To be noted: for Ki: read-out: Receptor Binding, Ki DOP. (In a radioligand displacement assay an active substance lowers the binding of a labelled ligand.)
The target in another assay is human KOP receptor (Homo sapiens, UniProt P41145). The experiment in a line: Radioligand competition binding, [3H]U69,593, membranes of transfected CHO cells (Kappa-CN). As to conditions: for Ki: read-out: Receptor Binding, Ki KOP.
Setting [1] is: [3H]DAMGO displacement, Cheng-Prusoff, mean ± SEM, at least three experiments in triplicate.
The mark [2] stands for this setting: [3H]U69,593 displacement, Cheng-Prusoff, mean ± SEM, at least three experiments in triplicate.

These results are taken from article PMC5643385, “Probing ligand recognition of the opioid pan antagonist AT-076 at nociceptin, kappa, mu, and delta opioid receptors through structure-activity relationships” (Scientific Reports, 2017).

Where two headings read alike, the source gives them in different places.

As usually defined, the Ki is the equilibrium dissociation constant of an inhibitor or competing ligand from its target.

Consider `CC(C)[C@@H](CN1CCC(c2cccc(O)c2)CC1)NC(=O)[C@H]1Cc2ccc(CN)cc2CN1` [Compound 3, (R)-7-(aminomethyl)-N-((S)-1-(4-(3-hydroxyphenyl)piperidin-1-yl)-3-methylbutan-2-yl)-1,2,3,4-tetrahydroisoquinoline-3-carboxamide], for which the Ki was 5.54 ± 1.15 µM on human NOP receptor, 1.49 ± 0.22 µM at human MOP receptor (setting [1]), 1.57 ± 1.13 µM on human DOP receptor and 0.118 ± 0.029 µM on human KOP receptor (setting [2]). For the same molecule, on human MOP receptor, the “Decrease in MOP binding affinity compared to AT-076” value is above 100 fold. The “Decrease in DOP binding affinity compared to AT-076” value at human DOP receptor is recorded as above 100 fold. At human KOP receptor, the “Decrease in KOP binding affinity compared to AT-076” value is given as above 100 fold.
As for `CC(C)[C@@H](CN1CCC(c2cccc(O)c2)CC1)NC(=O)[C@H]1Cc2ccc(CNC(=N)N)cc2CN1` [Compound 4, (R)-7-(guanidinomethyl)-N-((S)-1-(4-(3-hydroxyphenyl)piperidin-1-yl)-3-methylbutan-2-yl)-1,2,3,4-tetrahydroisoquinoline-3-carboxamide], the Ki on human NOP receptor is 3.26 ± 0.78 µM; at human MOP receptor (setting [1]), 0.18 ± 0.07 µM; at human DOP receptor, above 10 µM; on human KOP receptor (setting [2]) it was 0.129 ± 0.06 µM. Further, at human MOP receptor (vs lead AT-076 (1)), the “Decrease in MOP binding affinity compared to AT-076” value is given as above 100 fold. For the same molecule, the “Decrease in DOP binding affinity compared to AT-076” value on human DOP receptor (vs lead AT-076 (1)) is listed as above 100 fold. Moreover, the “Decrease in KOP binding affinity compared to AT-076” value at human KOP receptor (vs lead AT-076 (1)) is given as above 100 fold.
Take `CC(C)[C@@H](CN1CCC(c2cccc(O)c2)CC1)NC(=O)[C@H]1Cc2ccc(CNS(C)(=O)=O)cc2CN1` [Compound 5, (R)-N-((S)-1-(4-(3-hydroxyphenyl)piperidin-1-yl)-3-methylbutan-2-yl)-7-(methylsulfonamidomethyl)-1,2,3,4-tetrahydroisoquinoline-3-carboxamide]: the inhibition constant Ki on human NOP receptor is 7.91 ± 1.47 µM; at human MOP receptor (setting [1]), 4.4 ± 2.35 µM; on human DOP receptor, above 10 µM; at human KOP receptor (setting [2]) it was 0.295 ± 0.065 µM.
The matching figures for `CC(C)[C@@H](CN1CCC(c2cccc(O)c2)CC1)NC(=O)[C@@H](N)CCCCN` [Compound 6, (S)-2,6-diamino-N-((S)-1-(4-(3-hydroxyphenyl)piperidin-1-yl)-3-methylbutan-2-yl)hexanamide]: above 10 µM, above 10 µM, above 10 µM and 1.52 ± 0.419 µM.
In the case of `CC(C)[C@@H](CN1CCC(c2cccc(O)c2)CC1)NC(=O)[C@@H](N)CCCNC(=N)N` [Compound 7, (S)-2-amino-5-guanidino-N-((S)-1-(4-(3-hydroxyphenyl)piperidin-1-yl)-3-methylbutan-2-yl)pentanamide], the Ki on human NOP receptor was above 10 µM; on human MOP receptor (setting [1]) it was 1.44 ± 0.0576 µM; at human DOP receptor, above 10 µM; on human KOP receptor (setting [2]), 0.125 ± 0.0024 µM.
Consider `CC(C)[C@@H](CN1CCC(c2cccc(C#N)c2)CC1)NC(=O)[C@H]1Cc2ccccc2CN1` [Compound 9, (R)-N-((S)-1-(4-(3-cyanophenyl)piperidin-1-yl)-3-methylbutan-2-yl)-1,2,3,4-tetrahydroisoquinoline-3-carboxamide], for which the Ki on human NOP receptor is above 10 µM; at human MOP receptor (setting [1]), 0.973 ± 0.021 µM; at human DOP receptor it was above 10 µM; at human KOP receptor (setting [2]), 0.543 ± 0.0622 µM.
For the molecule `CC(C)[C@@H](CN1CCC(c2cccc(CN)c2)CC1)NC(=O)[C@H]1Cc2ccccc2CN1` [Compound 11, (R)-N-((S)-1-(4-(3-(aminomethyl)phenyl)piperidin-1-yl)-3-methylbutan-2-yl)-1,2,3,4-tetrahydroisoquinoline-3-carboxamide], the Ki at human NOP receptor was 0.202 ± 0.0556 µM; at human MOP receptor (setting [1]), 0.284 ± 0.0753 µM; at human DOP receptor, above 10 µM; at human KOP receptor (setting [2]), 0.408 ± 0.0308 µM.
For the molecule `CC(C)[C@@H](CN1CCC(N2CCc3ccccc32)CC1)NC(=O)[C@H]1Cc2ccc(O)cc2CN1` [Compound 16, (R)-7-hydroxy-N-((S)-1-(4-(indolin-1-yl)piperidin-1-yl)-3-methylbutan-2-yl)-1,2,3,4-tetrahydroisoquinoline-3-carboxamide], the inhibition constant Ki at human NOP receptor worked out at 0.566 ± 0.129 µM; at human DOP receptor it was 0.138 ± 0.045 µM.
With `Cc1cccc2c1CC[C@H](CN1CCC(c3c(Cl)cccc3Cl)CC1)C[C@@H]2O` [SB-612111, reference compound], the Ki stood at 0.623 ± 0.156 µM on human MOP receptor, 2.89 ± 0.532 µM at human DOP receptor and 0.541 ± 0.0363 µM at human KOP receptor.
